Results published in patent US20250282768A1 (Janssen Pharmaceutica NV, priority 2022, published 2025).

These compounds were tested on p-IKKa levels in L363 (NIK translocated multiple myeloma) cells (assay: Assay 2: Effect of compounds on p-IKKa levels in L363 (NIK translocated multiple myeloma) cells). Details: Homo sapiens, L-363, 6 h, read-out: Assay 2 IC50 (nM), p-IKKa (Ser 176/180) in BAFF stimulated L363 cells with MG132, 6 h; average if tested more than once.
Assay type: cell-based
In short: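 L363 cells incubated overnight ± 250 ng/ml BAFF, then 6 h at 37 °C with compound (0.3% DMSO) ± 10 μM MG132. Lysates assayed for p-IKKa (Ser176/180) by AlphaLISA SureFire. IC50 from sigmoidal fit of % inhibition normalized to BAFF/MG132-stimulated and unstimulated controls.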
Work on `CO[C@@H](CNc1nccc(-c2cccc(-c3cc([C@]4(O)CCN(C)C4=O)on3)n2)n1)C(F)(F)F` (single isomer, unassigned) [Example 463, (R)-3-Hydroxy-1-methyl-3-(3-(6-(2-(((*S)-3,3,3-trifluoro-2-methoxypropyl)amino)pyrimidin-4-yl)pyridin-2-yl)isoxazol-5-yl)pyrrolidin-2-one] yielded an IC50 of 50 to 500 nM.
Compound `Cc1cccnc1[C@H](C)Nc1nccc(-c2cccc(-c3cc([C@]4(O)CCN(C)C4=O)on3)n2)n1` (single isomer, unassigned) [Example 157] has an IC50 greater than 500 nM.
`CN1CC[C@@](O)(c2cc(-c3cccc(-c4ccnc(N5CCn6nc(N)cc6C5)n4)c3)no2)C1=O` [Example 417, (R)-3-(3-(3-(2-(2-Amino-6,7-dihydropyrazolo[1,5-a]pyrazin-5(4H)-yl)pyrimidin-4-yl)phenyl)isoxazol-5-yl)-3-hydroxy-1-methylpyrrolidin-2-one] showed an IC50 greater than 500 nM.
Work on `CN1CC[C@@](O)(c2cc(-c3cccc(-c4ccnc(Nc5ccncc5)n4)n3)no2)C1=O` [Example 249, (R)-3-Hydroxy-1-methyl-3-(3-(6-(2-(pyridin-4-ylamino)pyrimidin-4-yl)pyridin-2-yl)isoxazol-5-yl)pyrrolidin-2-one] yielded an IC50 of less than 50 nM.
For `CN1CC[C@@](O)(c2cc(-c3cccc(-c4ccnc(Nc5ccncc5C#N)n4)n3)no2)C1=O` [Example 290, (R)-4-((4-(6-(5-(3-Hydroxy-1-methyl-2-oxopyrrolidin-3-yl)isoxazol-3-yl)pyridin-2-yl)pyrimidin-2-yl)amino)nicotinonitrile], the IC50 was 50 to 500 nM.
Compound `Cc1ncccc1Nc1nccc(-c2cccc(-c3cc([C@]4(O)CCN(C)C4=O)on3)n2)n1` [Example 197, (R)-3-Hydroxy-1-methyl-3-(3-(6-(2-((2-methylpyridin-3-yl)amino)pyrimidin-4-yl)pyridin-2-yl)isoxazol-5-yl)pyrrolidin-2-one] has an IC50 of less than 50 nM.
Work on `COCCn1ccc(Nc2nccc(-c3cccc(-c4cc([C@]5(O)CCN(C)C5=O)on4)n3)n2)n1` (single isomer, unassigned) [Example 199, (*R)-3-Hydroxy-3-(3-(6-(2-((1-(2-methoxyethyl)-1H-pyrazol-3-yl)amino)pyrimidin-4-yl)pyridin-2-yl)isoxazol-5-yl)-1-methylpyrrolidin-2-one] yielded an IC50 of less than 50 nM.
`COc1cn([C@H]2C[C@@H](O)C2)nc1Nc1nccc(-c2cccc(-c3cc([C@]4(O)CCN(C)C4=O)on3)n2)n1` [Example 230, (R)-3-Hydroxy-3-(3-(6-(2-((1-((1s,3s)-3-hydroxycyclobutyl)-4-methoxy-1H-pyrazol-3-yl)amino)pyrimidin-4-yl)pyridin-2-yl)isoxazol-5-yl)-1-methylpyrrolidin-2-one] gave an IC50 of less than 50 nM.
With `C[C@H](Nc1nccc(-c2cccc(-c3cc([C@]4(O)CCN(C)C4=O)on3)n2)n1)C(=O)N(C)C` [Example 176, (S)-2-((4-(6-(5-((R)-3-Hydroxy-1-methyl-2-oxopyrrolidin-3-yl)isoxazol-3-yl)pyridin-2-yl)pyrimidin-2-yl)amino)-N,N-dimethylpropanamide] the IC50 was 50 to 500 nM.
Work on `CN1CC[C@@](O)(c2cc(-c3cccc(-c4ccnc(NC5(C)CC5)n4)n3)no2)C1=O` [Example 442, (R)-3-Hydroxy-1-methyl-3-(3-(6-(2-((1-methylcyclopropyl)amino)pyrimidin-4-yl)pyridin-2-yl)isoxazol-5-yl)pyrrolidin-2-one] yielded an IC50 of 50 to 500 nM.
`CN1CC[C@@](O)(c2cnn(-c3cccc(-c4ccnc(Nc5cnn(C)c5Cl)n4)n3)c2)C1=O` (single isomer, unassigned) [Example 411, (*R)-3-(1-(6-(2-((5-Chloro-1-methyl-1H-pyrazol-4-yl)amino)pyrimidin-4-yl)pyridin-2-yl)-1H-pyrazol-4-yl)-3-hydroxy-1-methylpyrrolidin-2-one] gave an IC50 of 50 to 500 nM.
`[2H]C([2H])([2H])C([2H])([2H])n1cc(Nc2nccc(-c3cccc(-c4cc([C@]5(O)CCN(C)C5=O)on4)n3)n2)cn1` [Example 74, (R)-3-(3-(6-(2-((1-(Ethyl-d5)-1H-pyrazol-4-yl)amino)pyrimidin-4-yl)pyridin-2-yl)isoxazol-5-yl)-3-hydroxy-1-methylpyrrolidin-2-one] gave an IC50 of less than 50 nM.
`CN1CC[C@@](O)(c2cc(-c3cccc(-c4ccnc(NC5CCN(CC(F)F)C5)n4)n3)no2)C1=O` (stereo partly drawn) [Example 365, (3R)-3-(3-(6-(2-((1-(2,2-Difluoroethyl)pyrrolidin-3-yl)amino)pyrimidin-4-yl)pyridin-2-yl)isoxazol-5-yl)-3-hydroxy-1-methylpyrrolidin-2-one] gave an IC50 greater than 500 nM.
Work on `CN1CC[C@@](O)(c2cc(-c3cccc(-c4ccnc(N5CCCn6ncc(N)c65)n4)c3)no2)C1=O` [Example 19, (R)-3-(3-(3-(2-(3-Amino-6,7-dihydropyrazolo[1,5-a]pyrimidin-4(5H)-)pyrimidin-4-yl)phenyl)isoxazol-5-yl)-3-hydroxy-1-methylpyrrolidin-2-one] yielded an IC50 greater than 500 nM.
For `CN(C)Cc1ccc(Nc2nccc(-c3cccc(-c4cc([C@]5(O)CCN(C)C5=O)on4)n3)n2)nc1` [Example 274, (R)-3-(3-(6-(2-((5-((Dimethylamino)methyl)pyridin-2-yl)amino)pyrimidin-4-yl)pyridin-2-yl)isoxazol-5-yl)-3-hydroxy-1-methylpyrrolidin-2-one], the IC50 was 50 to 500 nM.
With `COc1nn(CC(F)F)cc1Nc1nccc(-c2cccc(-c3cc([C@]4(O)CCN(C)C4=O)on3)n2)n1` [Example 58, (R)-3-(3-(6-(2-((1-(2,2-Difluoroethyl)-3-methoxy-1H-pyrazol-4-yl)amino)pyrimidin-4-yl)pyridin-2-yl)isoxazol-5-yl)-3-hydroxy-1-methylpyrrolidin-2-one] the IC50 was less than 50 nM.
`Cc1noc([C@H](C)Nc2nccc(-c3cccc(-c4cc([C@]5(O)CCN(C)C5=O)on4)n3)n2)n1` (single isomer, unassigned) [Example 151] showed an IC50 of 50 to 500 nM.
Compound `CN1CC[C@@](O)(c2cc(-c3cccc(-c4ccnc(N[C@H]5CCOC5)n4)n3)no2)C1=O` [Example 436, (R)-3-Hydroxy-1-methyl-3-(3-(6-(2-(((S)-tetrahydrofuran-3-yl)amino)pyrimidin-4-yl)pyridin-2-yl)isoxazol-5-yl)pyrrolidin-2-one] has an IC50 of 50 to 500 nM.
Compound `Cc1cc(Nc2nccc(-c3cccc(-n4cc([C@]5(O)CCN(C)C5=O)nn4)n3)n2)ccn1` [Example 191, (R)-3-Hydroxy-1-methyl-3-(1-(6-(2-((2-methylpyridin-4-yl)amino)pyrimidin-4-yl)pyridin-2-yl)-1H-1,2,3-triazol-4-yl)pyrrolidin-2-one] has an IC50 of less than 50 nM.
With `CN1C(=O)[C@](O)(c2cc(-c3cccc(-c4ccnc(Nc5cnn(C)c5)n4)n3)no2)[C@H]2C[C@H]21` [Example 240, (1R,4R,5S)-4-Hydroxy-2-methyl-4-(3-(6-(2-((1-methyl-1H-pyrazol-4-yl)amino)pyrimidin-4-yl)pyridin-2-yl)isoxazol-5-yl)-2-azabicyclo[3.1.0]hexan-3-one] the IC50 was 50 to 500 nM.
Work on `COCc1cc(Nc2nccc(-c3cccc(-c4cc([C@]5(O)CCN(C)C5=O)on4)n3)n2)nn1C` [Example 475, (R)-3-Hydroxy-3-(3-(6-(2-((5-(methoxymethyl)-1-methyl-1H-pyrazol-3-yl)amino)pyrimidin-4-yl)pyridin-2-yl)isoxazol-5-yl)-1-methylpyrrolidin-2-one] yielded an IC50 of less than 50 nM.
